In article PMC9795070, “Customized chitooligosaccharide production—controlling their length via engineering of rhizobial chitin synthases and the choice of expression system” (Frontiers in Bioengineering and Biotechnology, 2022):

Target: T1, NodC_GRH2 (Rhizobium sp. GRH2, UniProt A0A0N7ARR3)
T1 construct: gene nodC; wild-type nodC in shuttle vector pEKEx3, expressed in E. coli BL21 (DE3) and C. glutamicum DSM20300; not purified, membrane-embedded
T1 sequence (A0A0N7ARR3 1-443): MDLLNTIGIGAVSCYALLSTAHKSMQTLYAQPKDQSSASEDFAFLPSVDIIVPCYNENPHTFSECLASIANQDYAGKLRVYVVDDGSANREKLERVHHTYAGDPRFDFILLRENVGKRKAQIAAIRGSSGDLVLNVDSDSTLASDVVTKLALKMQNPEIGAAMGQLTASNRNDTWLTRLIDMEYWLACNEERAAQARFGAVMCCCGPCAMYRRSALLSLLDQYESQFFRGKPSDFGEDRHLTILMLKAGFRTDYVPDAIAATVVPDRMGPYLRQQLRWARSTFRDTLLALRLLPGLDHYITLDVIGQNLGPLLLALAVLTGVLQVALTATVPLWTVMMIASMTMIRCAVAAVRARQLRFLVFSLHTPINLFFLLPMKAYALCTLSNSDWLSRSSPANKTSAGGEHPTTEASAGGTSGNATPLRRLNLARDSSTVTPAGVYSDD
Assay: whole-cell production, HILIC-ESI-MS of lysed culture
Assay type: cell-based
Conditions: 0.1 mM IPTG, donor UDP-GlcNAc from the host

| SMILES | whole-cell production, HILIC-ESI-MS of lysed culture (C. glutamicum DSM20300, 30 °C) | whole-cell production, HILIC-ESI-MS of lysed culture (E. coli BL21 (DE3), 30 °C) |
| --- | --- | --- |
| CC(=O)N[C@H]1[C@H](O[C@H]2[C@H](O)[C@@H](NC(C)=O)[C@H](O[C@H]3[C@H](O)[C@@H](NC(C)=O)C(O)O[C@@H]3CO)O[C@@H]2CO)O[C@H](CO)[C@@H](O[C@@H]2O[C@H](CO)[C@@H](O[C@@H]3O[C@H](CO)[C@@H](O[C@@H]4O[C@H](CO)[C@@H](O)[C@H](O)[C@H]4NC(C)=O)[C@H](O)[C@H]3NC(C)=O)[C@H](O)[C@H]2NC(C)=O)[C@@H]1O (some centres unmarked) [A6, hexamer] | C. glutamicum expressing the same wildtype enzyme produces predominantly A6 | – |
| CC(=O)N[C@H]1[C@H](O[C@H]2[C@H](O)[C@@H](NC(C)=O)[C@H](O[C@H]3[C@H](O)[C@@H](NC(C)=O)C(O)O[C@@H]3CO)O[C@@H]2CO)O[C@H](CO)[C@@H](O[C@@H]2O[C@H](CO)[C@@H](O[C@@H]3O[C@H](CO)[C@@H](O)[C@H](O)[C@H]3NC(C)=O)[C@H](O)[C@H]2NC(C)=O)[C@@H]1O (some centres unmarked) [A5, pentamer] | – | the main product for wildtype NodC_GRH2 throughout the whole cultivation is A5 |
